Consider three compounds from ChEMBL document CHEMBL3860075, “Synthesis, characterization, and evaluation of (E)-methyl 2-((2-oxonaphthalen-1(2H)-ylidene)methylamino)acetate as a biological agent and an anion sensor” (Bioorg Med Chem, 2016).

The test system of one series is Pseudomonas aeruginosa. The experiment in a line: Antimicrobial activity against Pseudomonas aeruginosa ATCC 254992 after 24 hrs by broth microdilution assay. In kind it is functional. As to conditions: ATCC 254992, 24 h. In general terms: Broth dilution looks for growth in wells or tubes with falling amounts of substance.
A further series concerns Candida albicans. The experiment in a line: Antimicrobial activity against Candida albicans ATCC 60193 after 24 hrs by broth microdilution assay. The class given is functional. Particulars: ATCC 60193, 24 h.
Another series has as its system Enterococcus faecalis. The experiment in a line: Antimicrobial activity against Enterococcus faecalis ATCC 29212 after 24 hrs by broth microdilution assay. As to conditions: ATCC 29212, 24 h. In kind it is functional.
A short description of series [1]: Binding affinity to 0.5 equiv tetrabutylamonium fluoride anion assessed as decrease in N-H proton intensity by 1H NMR method.
Series [2] deals with Salmonella typhimurium. The experiment in a line: Genotoxicity in Salmonella typhimurium TA100 at 0.5 to 500 ppm per plate in absence of S9 fraction by Ames test. In kind it is toxicity, organism-based. As to conditions: salmonella enterica subsp. enterica serovar typhimurium. (In the Ames test, an excess of revertant colonies over the control signals mutagenicity.)
The test system of series [3] is Salmonella typhimurium. The experiment in a line: Genotoxicity in Salmonella typhimurium TA98 at 0.5 to 500 ppm per plate in absence of S9 fraction by Ames test. Particulars: salmonella enterica subsp. enterica serovar typhimurium. In kind it is toxicity, organism-based.
The species named for series [4] is Bos taurus. The experiment in a line: Binding affinity to calf thymus DNA assessed as bathochromism at 3 10^-5M after 5 mins by UV-visible spectroscopic analysis.
In series [5] the test system is Escherichia coli. The experiment in a line: Induction of hydrolytic cleavage of Escherichia coli supercoiled pBR322 DNA assessed as increase in nicked circular form at 200 uM after 3 hrs by agarose gel electrophoretic analysis.
Another series has as its system Staphylococcus aureus. The experiment in a line: Antimicrobial activity against Staphylococcus aureus ATCC 25923 after 24 hrs by broth microdilution assay. In kind it is functional. As to conditions: ATCC 25923, 24 h.
The nature of series [6]: Binding affinity to cyanide anion assessed as disappearance of peak at 430 nanometer at 5 10^-6M by UV-visible spectroscopic analysis.
The test system of another series is Candida tropicalis. The experiment in a line: Antimicrobial activity against Candida tropicalis ATCC 13803 after 24 hrs by broth microdilution assay. The class given is functional. As to conditions: ATCC 13803, 24 h.
The next series deals with Bacillus spizizenii. The experiment in a line: Antimicrobial activity against Bacillus subtilis ATCC 6633 after 24 hrs by broth microdilution assay. The class given is functional. Particulars: ATCC 6633, 24 h.
Series [7] in a line: Binding affinity to cyanide anion assessed as compound color change from colorless to yellow at compound:anion ratio of 1:1 under natural light by colorimetric method.
The nature of series [8]: Binding affinity to 1 equiv tetrabutylamonium fluoride anion assessed as disappearance of peak by 1H NMR method.
For another series, the system named is Proteus vulgaris. The experiment in a line: Antimicrobial activity against Proteus vulgaris ATCC 13315 after 24 hrs by broth microdilution assay. The class given is functional. As to conditions: ATCC 13315, 24 h.
The species named for series [9] is Bos taurus. The experiment in a line: Binding affinity to calf thymus DNA assessed as formation of intense band at 260 nanometer at 3 10^-5M after 5 mins by UV-visible spectroscopic analysis.
Series [10] concerns Escherichia coli. The experiment in a line: Antimicrobial activity against Escherichia coli ATCC 25922 after 24 hrs by broth microdilution assay. The class given is functional. Particulars: ATCC 25922, 24 h.
Series [11] has as its system Escherichia coli. The experiment in a line: Antimicrobial activity against Escherichia coli ATCC 35218 after 24 hrs by broth microdilution assay. In kind it is functional. As to conditions: ATCC 35218, 24 h.
Series [12] relates to Escherichia coli. The experiment in a line: Induction of oxidative cleavage of Escherichia coli supercoiled pBR322 DNA assessed as increase in nicked circular form at 25 uM after 3 hrs in presence of H2O2 by agarose gel electrophoretic analysis.
A short description of series [13]: Binding affinity to cyanide anion assessed as compound color change from colorless to yellow at compound:anion ratio of 1:1 under UV light by colorimetric method.

≈ marks a conversion by molar mass, not a printed value. Calls of active or inactive are those of the source. No cut-off for these calls is given here.

Take `COC(=O)CN/C=C1/C(=O)C=Cc2ccccc21`: the MIC (in general, the lowest concentration found to suppress growth) in the series with Pseudomonas aeruginosa came to 128 µg/mL (≈ 526 µM); in the series on Candida albicans, 128 µg/mL (≈ 526 µM); against Enterococcus faecalis, 256 µg/mL (≈ 1050 µM); with Staphylococcus aureus it was 128 µg/mL (≈ 526 µM); in the series with Candida tropicalis it was 128 µg/mL (≈ 526 µM); in the series on Bacillus spizizenii, 128 µg/mL (≈ 526 µM). The MIC in the series with Proteus vulgaris, against Escherichia coli [10] and in the series on Escherichia coli [11] was 256 µg/mL (≈ 1050 µM) in each case. Also, the result (in series [1]; in the series on Escherichia coli [5]; in series [6]; in [7]; in series [8]; in the series filed under Bos taurus [9]) was Active. Moreover, the outcome (in the series on Escherichia coli [12]; in series [13]) was Active. Moreover, the figures for the Activity in the series with Salmonella typhimurium [2], with Salmonella typhimurium [3] and in the series filed under Bos taurus [4] were above 40%, “Non-Toxic” and 1 to 4 nm, respectively.

In the series on Candida tropicalis, `OC(Cn1cncn1)(Cn1cncn1)c1ccc(F)cc1F` [FLUCONAZOLE] displayed an MIC of 32 µg/mL (≈ 104 µM).

Take `CC1(C)S[C@@H]2[C@H](NC(=O)[C@H](N)c3ccccc3)C(=O)N2[C@H]1C(=O)O` [AMPICILLIN]: the MIC in the series with Pseudomonas aeruginosa was 2 µg/mL (≈ 5.72 µM); against Enterococcus faecalis, 2 µg/mL (≈ 5.72 µM); against Bacillus spizizenii, 1 µg/mL (≈ 2.86 µM); with Proteus vulgaris it was 2 µg/mL (≈ 5.72 µM).
